Test results from ChEMBL document CHEMBL5346863, “Discovery of substituted benzyloxy-benzylamine inhibitors of acetyltransferase Eis and their anti-mycobacterial activity” (Eur J Med Chem, 2022).
In brackets after ≈: the same amount, converted by molar mass. Activity calls are given as the source filed them. The rule behind the calls is not given here.

What was measured:
N-acetyltransferase Eis [1] = molecular target: T1, N-acetyltransferase Eis (Mycobacterium tuberculosis (strain ATCC 25618 / H37Rv), UniProt P9WFK7); assay: Inhibition of wild-type Mycobacterium tuberculosis Eis expressed in Escherichia coli BL21(DE3) cells incubated for 5 mins by Ellman's method
T1 sequence (P9WFK7 whole entry): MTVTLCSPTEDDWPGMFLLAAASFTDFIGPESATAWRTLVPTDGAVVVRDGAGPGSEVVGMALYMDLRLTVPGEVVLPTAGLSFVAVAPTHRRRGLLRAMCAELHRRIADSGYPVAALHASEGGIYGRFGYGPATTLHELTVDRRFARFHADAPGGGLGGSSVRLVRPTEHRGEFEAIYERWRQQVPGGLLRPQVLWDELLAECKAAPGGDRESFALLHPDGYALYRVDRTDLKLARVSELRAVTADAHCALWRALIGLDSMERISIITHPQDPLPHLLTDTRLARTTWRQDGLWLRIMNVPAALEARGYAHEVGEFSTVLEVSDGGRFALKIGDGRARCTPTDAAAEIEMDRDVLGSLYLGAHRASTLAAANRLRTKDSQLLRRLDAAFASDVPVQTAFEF

[2] = tested on: Mycobacterium tuberculosis; assay: Antibacterial activity against Mycobacterium tuberculosis H37Ra assessed as bacterial growth inhibition incubated 2 to 3 weeks by resazurin dye based assay; assay type: functional; settings: time 2-3 weeks
[3] = tested on: Mycobacterium tuberculosis; assay: Antibacterial activity against Mycobacterium tuberculosis H37Rv assessed as MIC of kanamycin A at 5 uM incubated for 24 hrs followed by kanamycin A addition measured after 6 days by alamarblue dye based assay; assay type: functional; settings: 168 h, time 7 day
[4] = tested on: Mycobacterium tuberculosis; assay: Antibacterial activity against Mycobacterium tuberculosis mc2 6230 assessed as bacterial growth inhibition incubated 2 to 3 weeks by resazurin dye based assay; assay type: functional; settings: time 2-3 weeks
[5] = tested on: Mycolicibacterium smegmatis; assay: Antibacterial activity against Mycobacterium smegmatis mc2 122 assessed as bacterial growth inhibition incubated for 2 to 3 weeks by resazurin dye based assay; assay type: functional; settings: time 2-3 weeks
[6] = tested on: Mycobacteroides abscessus; assay: Antibacterial activity against Mycobacterium abscessus ATCC 19977 assessed as bacterial growth inhibition incubated for 2 to 3 weeks by resazurin dye based assay; assay type: functional; settings: time 2-3 weeks
Mycobacterium avium = assay: Antibacterial activity against Mycobacterium avium ATCC 25291 assessed as bacterial growth inhibition incubated for 2 to 3 weeks by resazurin dye based assay; assay type: functional; settings: time 2-3 weeks
[7] = tested on: Mycobacterium intracellulare; assay: Antibacterial activity against Mycobacterium intracellulare ATCC 13950 assessed as bacterial growth inhibition incubated for 2 to 3 weeks by resazurin dye based assay; assay type: functional; settings: time 2-3 weeks
[8] = tested on: Mycobacterium parascrofulaceum; assay: Antibacterial activity against Mycobacterium parascrofulaceum ATCC BAA-614 assessed as bacterial growth inhibition incubated for 2 to 3 weeks by resazurin dye based assay; assay type: functional; settings: time 2-3 weeks
[9] = tested on: Mycobacterium tuberculosis; assay: Antibacterial activity against Mycobacterium tuberculosis H37Rv assessed as MIC of kanamycin A at 6.3 uM incubated for 24 hrs followed by kanamycin A addition measured after 6 days by alamarblue dye based assay; assay type: functional; settings: 168 h, time 7 day
[10] = tested on: Mycobacterium tuberculosis; assay: Antibacterial activity against Mycobacterium tuberculosis H37Rv assessed as MIC of kanamycin A at 43.8 uM incubated for 24 hrs followed by kanamycin A addition measured after 6 days by alamarblue dye based assay; assay type: functional; settings: 168 h, time 7 day
[11] = tested on: Mycobacterium tuberculosis; assay: Antibacterial activity against Mycobacterium tuberculosis H37Rv assessed as MIC of kanamycin A at 8.2 uM incubated for 24 hrs followed by kanamycin A addition measured after 6 days by alamarblue dye based assay; assay type: functional; settings: 168 h, time 7 day
[12] = tested on: Mycobacterium tuberculosis; assay: Antibacterial activity against Mycobacterium tuberculosis H37Rv assessed as MIC of kanamycin A at 27.5 uM incubated for 24 hrs followed by kanamycin A addition measured after 6 days by alamarblue dye based assay; assay type: functional; settings: 168 h, time 7 day
[13] = tested on: Mycobacterium tuberculosis; assay: Antibacterial activity against Mycobacterium tuberculosis mc2 6230 assessed as MIC of kanamycin A at 25 uM incubated for 24 hrs followed by kanamycin A addition measured after 6 days by alamarblue dye based assay; assay type: functional; settings: mc2 6230, 168 h, time 7 day
[14] = tested on: Mycobacterium tuberculosis; assay: Antibacterial activity against Mycobacterium tuberculosis mc2 6230 K204 assessed as MIC of kanamycin A at 25 uM incubated for 24 hrs followed by kanamycin A addition measured after 6 days by alamarblue dye based assay; assay type: functional; settings: Mycobacterium tuberculosis, mc2 6230 K204, 168 h, time 7 day, read-out: MIC
[15] = tested on: Mycobacterium tuberculosis; assay: Antibacterial activity against Mycobacterium tuberculosis H37Rv assessed as MIC of kanamycin A at 100 uM incubated for 24 hrs followed by kanamycin A addition measured after 6 days by alamarblue dye based assay; assay type: functional; settings: time 7.0 day
[16] = tested on: Mycobacterium tuberculosis; assay: Antibacterial activity against Mycobacterium tuberculosis mc2 6230 assessed as MIC of kanamycin A at 50 uM incubated for 24 hrs followed by kanamycin A addition measured after 6 days by alamarblue dye based assay; assay type: functional; settings: mc2 6230, 168 h, time 7 day
[17] = tested on: Mycobacterium tuberculosis; assay: Antibacterial activity against Mycobacterium tuberculosis mc2 6230 K204 assessed as MIC of kanamycin A at 50 uM incubated for 24 hrs followed by kanamycin A addition measured after 6 days by alamarblue dye based assay; assay type: functional; settings: mc2 6230 K204, 168 h, time 7 day
N-acetyltransferase Eis [18] = molecular target: T1, N-acetyltransferase Eis; assay: Binding affinity to wild-type Mycobacterium tuberculosis Eis expressed in Escherichia coli BL21(DE3) cells assessed as inhibition constant incubated for 5 mins by Ellman's method based Michaelis-Menten analysis

For Clc1cccc(COc2ccccc2CNCc2ccncc2)c1, the IC50 (N-acetyltransferase Eis [1]) was 8.9 µM, the MIC [2] was 62.5 µM (≈ 21.2 µg/mL) and the MIC [3] was 2.5 µg/mL. The MIC [4] was 100 µM (≈ 33.9 µg/mL), the MIC [5] was greater than 62.5 µM and the MIC [6] was greater than 62.5 µM. The MIC (Mycobacterium avium) was greater than 62.5 µM, the MIC [7] was greater than 62.5 µM and the MIC [8] was 31.3 µM (≈ 10.6 µg/mL).

Compound Clc1ccc(COc2cccc(CNCc3cccnc3)c2)cc1 has an IC50 (N-acetyltransferase Eis [1]) of 2.5 µM, an MIC [2] of 15.6 µM (≈ 5.29 µg/mL) and an MIC [9] of 2.5 µg/mL. The MIC [4] was 50 µM (≈ 16.9 µg/mL), the MIC [5] was 31.3 µM (≈ 10.6 µg/mL) and the MIC (Mycobacterium avium) was greater than 62.5 µM. The MIC [7] was 31.3 µM (≈ 10.6 µg/mL).

Work on Fc1ccc(COc2ccccc2CNCc2ccncc2)cc1 yielded an IC50 (N-acetyltransferase Eis [1]) of roughly 100 µM, an MIC [2] greater than 250 µM and an MIC [10] of 2.5 µg/mL. The MIC [4] was 50 µM (≈ 16.1 µg/mL).

Compound Fc1ccc(COc2ccccc2CNCc2cccnc2)cc1 has an IC50 (N-acetyltransferase Eis [1]) of 10 µM, an MIC [2] of 125 µM (≈ 40.3 µg/mL) and an MIC [11] of 2.5 µg/mL. The MIC [4] was greater than 100 µM, the MIC [5] was greater than 62.5 µM and the MIC [6] was greater than 62.5 µM. It also gave an MIC (Mycobacterium avium) greater than 62.5 µM, an MIC [7] greater than 62.5 µM and an MIC [8] greater than 62.5 µM.

For Clc1ccc(COc2ccc(CNCc3cccnc3)cc2)cc1, the IC50 (N-acetyltransferase Eis [1]) was 2.9 µM, the MIC [2] was 31.3 µM (≈ 10.6 µg/mL) and the MIC [12] was no more than 1.25 µg/mL. It also gave an MIC [4] of 50 µM (≈ 16.9 µg/mL), an MIC [13] of less than 1.25 µM and an MIC [14] of no more than 1.25 µM. The MIC [6] was greater than 62.5 µM, the MIC (Mycobacterium avium) was greater than 62.5 µM and the MIC [7] was 15.6 µM (≈ 5.29 µg/mL).

Brc1ccc(COc2ccccc2CNCc2ccccc2)cc1 was tested, and the IC50 (N-acetyltransferase Eis [1]) was 1.3 µM, the MIC [2] was 31.3 µM (≈ 12 µg/mL) and the Activity [15] was “Active”. It also gave an MIC [4] of 100 µM (≈ 38.2 µg/mL), an MIC [16] of less than 1.25 µM and an MIC [17] greater than 10 µM. The Ki (N-acetyltransferase Eis [18]) was 5.26 µM, the MIC (Mycobacterium avium) was greater than 62.5 µM and the MIC [7] was 31.3 µM (≈ 12 µg/mL).
